Test results: PMC6479601, “Salicylate and Procyanidin-Rich Stem Extracts of Gaultheria procumbens L. Inhibit Pro-Inflammatory Enzymes and Suppress Pro-Inflammatory and Pro-Oxidant Functions of Human Neutrophils Ex Vivo” (International Journal of Molecular Sciences, 2019)

Experiments:
LOX (lipoxygenase) = target: T1, LOX (lipoxygenase); assay: lipoxygenase inhibition assay (Matczak et al.); assay type: biochemical; details: eight-point curve; read-out: LOX / IC50 (mg GAE/mL; mM) ^b
T1 construct: gene LOX1.1
Text: lipoxygenase inhibition assay (Matczak et al.) on LOX (lipoxygenase)

HYAL (hyaluronidase) = target: T2, HYAL (hyaluronidase); assay: hyaluronidase inhibition assay (Matczak et al.); assay type: biochemical; details: eight-point curve; read-out: HYAL / IC50 (μg GAE/mL; μM) ^b
T2 construct: gene SPAM1
Text: hyaluronidase inhibition assay (Matczak et al.) on HYAL (hyaluronidase)

Row | Structure (SMILES) | IC50 (LOX (lipoxygenase)) | IC50 (HYAL (hyaluronidase))
1 | C[C@@H]1C[C@H]2[C@@H]3CCC4=CC(=O)C=C[C@]4(C)[C@@]3(F)[C@@H](O)C[C@]2(C)[C@@]1(O)C(=O)CO [DEX] | 0.3 ± 0.02 mM | 36.1 ± 2.68 µM
2 | COc1ccc2c(c1)c(CC(=O)O)c(C)n2C(=O)c1ccc(Cl)cc1 [IND] | 0.26 ± 0.01 mM | 35.7 ± 5.34 µM
3 | Oc1cc(O)c2c(c1)O[C@H](c1ccc(O)c(O)c1)[C@H](O)[C@H]2c1c(O)cc(O)c2c1O[C@H](c1ccc(O)c(O)c1)[C@H](O)C2 [PB2] | 0.29 ± 0.03 mM | 37.4 ± 1.78 µM
4 | COC(=O)c1ccccc1O[C@@H]1O[C@H](CO[C@@H]2OC[C@@H](O)[C@H](O)[C@H]2O)[C@@H](O)[C@H](O)[C@H]1O [compound 18, methyl salicylate 2-O-(6′-O-β-D-xylopyranosyl)-β-D-glucopyranoside] | 1.26 ± 0.04 mM | 64 ± 2.87 µM
5 | O=c1c(O)c(-c2ccc(O)c(O)c2)oc2cc(O)cc(O)c12 [compound 39, QU] | 0.3 ± 0.02 mM | 102 ± 6.09 µM
